Measurements taken from ChEMBL document CHEMBL6153137, “Design, Synthesis, and Biological Evaluation of Novel Orally Available Covalent CDK12/13 Dual Inhibitors for the Treatment of Tumors” (J Med Chem, 2025).
Calls of active or inactive are those of the source. No cut-off for these calls is given here.

Experiments:
[1] = biological target: Cyclin-dependent kinase 12/13 (Homo sapiens) (UniProt Q14004+Q9NYV4); assay: Inhibition of CDK12/13 in human SUM149PT cells assessed as reduction in level of phosphorylation of Ser2 on RNA Pol II CTD incubated for 24 hrs by western blot analysis; format: cell-based; conditions: dose 250-1000 nM
[2] = Toxicity against female Sprague-Dawley rat assessed as decrease in thymus weight at 7.5 to 30 mg/kg, po administered once daily via gavage for 28 days and measured on day 29; format: organism-based; conditions: in vivo, 696 h, dose 7.5-30 mg/kg, time 29 day
[3] = biological target: CDK7/Cyclin H/MNAT1 (Homo sapiens, UniProt P50613); assay: Inhibition of human recombinant N-terminal 6X His-tagged CDK7/CCNH/N-terminal 6X His-tagged MNAT1 expressed in HEP Sf9 cells using ATP as substrate measured after 60 mins by ADP-Glo reagent based luminescence assay
Sequence of CDK7/Cyclin H/MNAT1 (P51946 whole entry): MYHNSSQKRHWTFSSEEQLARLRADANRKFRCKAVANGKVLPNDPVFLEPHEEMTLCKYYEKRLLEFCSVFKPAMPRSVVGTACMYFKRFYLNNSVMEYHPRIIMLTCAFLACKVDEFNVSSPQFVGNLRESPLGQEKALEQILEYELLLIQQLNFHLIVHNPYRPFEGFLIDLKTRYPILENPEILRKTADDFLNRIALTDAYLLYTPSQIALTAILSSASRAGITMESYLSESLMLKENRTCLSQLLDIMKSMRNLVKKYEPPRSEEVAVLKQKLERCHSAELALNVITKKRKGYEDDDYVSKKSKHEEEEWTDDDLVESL
Sequence of CDK7/Cyclin H/MNAT1 (P50613 whole entry): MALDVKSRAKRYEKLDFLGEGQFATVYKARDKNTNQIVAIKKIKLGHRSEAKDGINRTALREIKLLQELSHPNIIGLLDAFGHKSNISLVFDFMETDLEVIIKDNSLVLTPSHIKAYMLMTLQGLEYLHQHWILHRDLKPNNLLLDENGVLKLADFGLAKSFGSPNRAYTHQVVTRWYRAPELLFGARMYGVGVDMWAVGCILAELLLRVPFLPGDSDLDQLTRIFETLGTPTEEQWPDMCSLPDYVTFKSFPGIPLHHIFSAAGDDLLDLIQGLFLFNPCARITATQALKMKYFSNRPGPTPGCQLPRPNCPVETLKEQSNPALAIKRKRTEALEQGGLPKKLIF
Sequence of CDK7/Cyclin H/MNAT1 (P51948 whole entry, further chain): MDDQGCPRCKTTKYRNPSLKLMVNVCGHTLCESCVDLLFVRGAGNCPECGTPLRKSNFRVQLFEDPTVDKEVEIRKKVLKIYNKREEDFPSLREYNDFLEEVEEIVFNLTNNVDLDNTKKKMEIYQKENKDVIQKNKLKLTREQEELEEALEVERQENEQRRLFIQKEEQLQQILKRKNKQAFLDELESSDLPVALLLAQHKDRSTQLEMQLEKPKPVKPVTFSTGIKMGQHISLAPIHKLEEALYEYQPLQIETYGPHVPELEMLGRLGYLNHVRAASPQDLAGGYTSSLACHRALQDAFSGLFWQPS

[4] = Half life in male Sprague-Dawley rat at 40 mg/kg, po administered via gavage and measured on day 1; format: ADME, organism-based; conditions: in vivo, time 1 day
[5] = Half life in Sprague-Dawley rat at 1 mg/kg, iv measured for 24 hrs by LC-MS/MS analysis; format: ADME, organism-based; conditions: in vivo
[6] = Toxicity against male Sprague-Dawley rat assessed as effect on mean corpuscular hemoglobin at 10 to 40 mg/kg, po administered once daily via gavage for 28 days and measured on day 29; format: organism-based; conditions: in vivo, 696 h, dose 10-40 mg/kg, time 29 day
[7] = Cmax in female Sprague-Dawley rat at 30 mg/kg, po administered via gavage and measured on day 1; format: ADME, organism-based; conditions: in vivo, time 1 day
[8] = AUC (0 to infinity) in Sprague-Dawley rat at 15 mg/kg, po by LC-MS/MS analysis; format: ADME, organism-based; conditions: in vivo
[9] = biological target: Cyclin-dependent kinase 9 (Homo sapiens) (UniProt P50750); assay: Inhibition of CDK9 in human SUM149PT cells assessed as reduction in level of phosphorylation of Ser7 on RNA Pol II CTD at 500 nM incubated for 12 hrs followed by drug wash-out and measured after 72 hrs by western blot analysis; format: cell-based
Sequence of Cyclin-dependent kinase 9 (Homo sapiens) (P50750 whole entry): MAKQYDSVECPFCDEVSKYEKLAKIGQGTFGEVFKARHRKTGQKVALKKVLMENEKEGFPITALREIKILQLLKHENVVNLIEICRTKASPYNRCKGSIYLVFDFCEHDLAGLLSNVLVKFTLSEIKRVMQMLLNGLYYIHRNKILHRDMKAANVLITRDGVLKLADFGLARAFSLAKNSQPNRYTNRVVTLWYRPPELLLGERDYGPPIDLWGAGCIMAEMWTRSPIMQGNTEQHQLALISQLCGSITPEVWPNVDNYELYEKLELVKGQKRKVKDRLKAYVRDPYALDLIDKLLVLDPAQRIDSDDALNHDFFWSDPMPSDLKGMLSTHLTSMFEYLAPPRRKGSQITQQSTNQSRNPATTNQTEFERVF

[10] = biological target: CDK18/Cyclin Y (Homo sapiens) (UniProt Q07002+Q8ND76); assay: Inhibition of human recombinant N-terminal GST-tagged CDK18/N-terminal GST-tagged Cyclin Y expressed in HEP Sf9 cells using ATP as substrate at 2 uM measured after 60 mins by ADP-Glo reagent based luminescence assay
[11] = tested on: HCC1395; assay: Antiproliferative activity against human HCC1395 cells assessed as reduction in cell viability incubated for 7 days by CellTiter-Glo reagent based luminescence analysis; format: functional; conditions: HCC1395, 168 h
[12] = Toxicity against female Sprague-Dawley rat assessed as effect on blood urea nitrogen level at 7.5 to 30 mg/kg, po administered once daily via gavage for 28 days and measured on day 29; format: organism-based; conditions: in vivo, 696 h, dose 7.5-30 mg/kg, time 29 day
[13] = biological target: Cyclin-dependent kinase 5/CDK5 activator 1 (Homo sapiens) (UniProt Q00535+Q15078); assay: Inhibition of human recombinant N-terminal GST-tagged CDK5/N-terminal GST-tagged p35NCK expressed in HEP Sf9 cells using ATP as substrate at 2 uM measured after 60 mins by ADP-Glo reagent based luminescence analysis
Sequence of Cyclin-dependent kinase 5/CDK5 activator 1 (Homo sapiens) (Q00535 whole entry): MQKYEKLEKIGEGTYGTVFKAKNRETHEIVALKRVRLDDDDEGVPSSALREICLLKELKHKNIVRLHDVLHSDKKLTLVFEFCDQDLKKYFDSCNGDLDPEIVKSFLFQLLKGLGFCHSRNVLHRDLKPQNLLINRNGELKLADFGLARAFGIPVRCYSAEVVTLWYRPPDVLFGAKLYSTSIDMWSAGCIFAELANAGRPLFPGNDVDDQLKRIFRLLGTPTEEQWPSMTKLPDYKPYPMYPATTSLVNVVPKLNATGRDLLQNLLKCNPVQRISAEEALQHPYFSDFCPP
Sequence of Cyclin-dependent kinase 5/CDK5 activator 1 (Homo sapiens) (Q15078 99-307 partner limits assumed): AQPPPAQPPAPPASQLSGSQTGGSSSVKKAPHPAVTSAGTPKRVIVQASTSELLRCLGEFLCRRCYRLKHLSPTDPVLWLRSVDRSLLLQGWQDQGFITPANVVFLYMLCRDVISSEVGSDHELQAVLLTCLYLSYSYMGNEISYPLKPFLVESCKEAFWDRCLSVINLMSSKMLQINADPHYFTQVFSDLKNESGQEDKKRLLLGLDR

[14] = tested on: DLD-1; assay: Antiproliferative activity against human DLD-1 cells assessed as reduction in cell viability incubated for 7 days by CellTiter-Glo reagent based luminescence analysis; format: functional; conditions: DLD-1, 168 h
[15] = Half life in Sprague-Dawley rat at 5 mg/kg, po measured for 24 hrs by LC-MS/MS analysis; format: ADME, organism-based; conditions: in vivo
[16] = biological target: CDK2/Cyclin A2 (Homo sapiens) (UniProt P24941+P20248); assay: Inhibition of human recombinat N-terminal GST-tagged CDK2/C-terminal 8X His-tagged Cyclin A2 expressed in HEP Sf9 cells using ATP as substrate at 2 uM measured after 60 mins by ADP-Glo reagent based luminescence analysis
[17] = Half life in Sprague-Dawley rat at 50 mg/kg, po measured for 24 hrs by LC-MS/MS analysis; format: ADME, organism-based; conditions: in vivo
[18] = biological target: CDK12/Cyclin K (Homo sapiens) (UniProt O75909+Q9NYV4); assay: Inhibition of N-terminal GST-tagged human recombinant CDK12/N-terminal FLAG and C-terminal 6X His-tagged Cyclin K expressed in HEP Sf9 cells using ATP as substrate at 2 uM measured after 60 mins by ADP-Glo reagent based luminescence assay
[19] = biological target: CDK1/Cyclin E (Homo sapiens) (UniProt P06493+P24864); assay: Inhibition of human recombinant N-terminal GST-tagged CDK1/Cyclin E1 expressed in HEP Sf9 cells using ATP as substrate at 2 uM measured after 60 mins by ADP-Glo reagent based luminescence analysis
Sequence of CDK1/Cyclin E (Homo sapiens) (P06493 whole entry, looked up): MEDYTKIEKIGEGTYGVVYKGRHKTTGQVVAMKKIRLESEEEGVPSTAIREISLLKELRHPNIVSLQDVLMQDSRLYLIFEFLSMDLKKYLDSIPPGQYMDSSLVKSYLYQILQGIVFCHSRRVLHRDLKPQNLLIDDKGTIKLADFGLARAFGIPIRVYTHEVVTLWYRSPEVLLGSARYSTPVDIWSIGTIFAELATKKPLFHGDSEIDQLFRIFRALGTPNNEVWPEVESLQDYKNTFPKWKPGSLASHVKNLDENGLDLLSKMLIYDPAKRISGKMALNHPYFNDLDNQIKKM
Sequence of CDK1/Cyclin E (Homo sapiens) (P24864 whole entry, looked up): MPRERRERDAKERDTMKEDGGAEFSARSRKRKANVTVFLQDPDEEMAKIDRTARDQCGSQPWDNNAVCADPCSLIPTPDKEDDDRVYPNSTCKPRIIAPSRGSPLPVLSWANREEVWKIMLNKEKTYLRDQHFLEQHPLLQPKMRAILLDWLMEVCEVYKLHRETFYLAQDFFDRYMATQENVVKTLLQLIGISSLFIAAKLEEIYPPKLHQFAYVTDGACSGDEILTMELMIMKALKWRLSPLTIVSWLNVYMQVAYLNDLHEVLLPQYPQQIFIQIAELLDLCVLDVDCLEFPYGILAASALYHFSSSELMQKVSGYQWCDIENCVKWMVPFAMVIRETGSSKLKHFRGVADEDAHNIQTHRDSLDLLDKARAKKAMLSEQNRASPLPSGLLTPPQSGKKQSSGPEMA

[20] = Toxicity against male Sprague-Dawley rat assessed as soft feces at 40 mg/kg, po administered once daily via gavage for 28 days; format: organism-based; conditions: in vivo, 672 h, time 28 day
[21] = Toxicity against female Sprague-Dawley rat assessed as effect on phosphorus level in blood at 7.5 to 30 mg/kg, po administered once daily via gavage for 28 days and measured on day 29; format: organism-based; conditions: in vivo, 696 h, dose 7.5-30 mg/kg, time 29 day
[22] = Ratio of drug level in tumor to plasma in Balb/c mouse xenografted with human MV4-11 cells at 30 mg/kg, po administered via gavage and measured after 2 hrs; format: ADME, organism-based
[23] = Cmax in Balb/c mouse xenografted with human SUM149PT cells at 30 mg/kg, po administered once daily via gavage; format: ADME, organism-based; conditions: in vivo
[24] = biological target: Cytochrome P450 1A2 (Homo sapiens, UniProt P05177); assay: Inhibition of CYP1A2 in human liver microsomes assessed as inhibition of phenacetin-O-deethylation incubated for 10 mins in presence of NADPH by LC-MS/MS analysis; format: ADME, Microsome
Sequence of Cytochrome P450 1A2 (P05177 whole entry): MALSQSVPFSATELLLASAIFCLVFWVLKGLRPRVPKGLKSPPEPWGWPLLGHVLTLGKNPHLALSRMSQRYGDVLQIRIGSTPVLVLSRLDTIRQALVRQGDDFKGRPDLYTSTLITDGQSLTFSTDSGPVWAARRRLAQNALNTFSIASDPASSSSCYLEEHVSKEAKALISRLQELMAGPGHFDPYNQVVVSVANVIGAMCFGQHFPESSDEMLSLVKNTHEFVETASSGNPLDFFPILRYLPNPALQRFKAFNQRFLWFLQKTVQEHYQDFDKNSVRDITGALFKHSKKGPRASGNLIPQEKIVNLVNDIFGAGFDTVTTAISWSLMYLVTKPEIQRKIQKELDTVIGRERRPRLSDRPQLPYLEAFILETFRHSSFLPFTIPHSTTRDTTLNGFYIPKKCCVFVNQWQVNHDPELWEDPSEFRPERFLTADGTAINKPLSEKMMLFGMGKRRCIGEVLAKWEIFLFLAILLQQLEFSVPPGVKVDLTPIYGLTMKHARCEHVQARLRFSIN

[25] = AUC(0 to t) in female Sprague-Dawley rat at 15 mg/kg, po administered via gavage and measured on day 1; format: ADME, organism-based; conditions: in vivo, 24 h, time 1 day
[26] = Cmax in male Sprague-Dawley rat at 20 mg/kg, po administered via gavage and measured on day 1; format: ADME, organism-based; conditions: in vivo, time 1 day
[27] = AUC(0 to t) in female Sprague-Dawley rat at 7.5 mg/kg, po administered once daily via gavage for 28 days; format: ADME, organism-based; conditions: in vivo, 672 h, time 28 day
[28] = Toxicity against male Sprague-Dawley rat assessed as effect on red blood cells level at 10 to 40 mg/kg, po administered once daily via gavage for 28 days and measured on day 29; format: organism-based; conditions: in vivo, 696 h, dose 10-40 mg/kg, time 29 day
[29] = biological target: Cytochrome P450 2D6 (Homo sapiens, UniProt P10635); assay: Inhibition of CYP2D6 in human liver microsomes assessed as inhibition of dextromethorphan-O-demethylation incubated for 10 mins in presence of NADPH by LC-MS/MS analysis; format: ADME, Microsome
Sequence of Cytochrome P450 2D6 (P10635 whole entry): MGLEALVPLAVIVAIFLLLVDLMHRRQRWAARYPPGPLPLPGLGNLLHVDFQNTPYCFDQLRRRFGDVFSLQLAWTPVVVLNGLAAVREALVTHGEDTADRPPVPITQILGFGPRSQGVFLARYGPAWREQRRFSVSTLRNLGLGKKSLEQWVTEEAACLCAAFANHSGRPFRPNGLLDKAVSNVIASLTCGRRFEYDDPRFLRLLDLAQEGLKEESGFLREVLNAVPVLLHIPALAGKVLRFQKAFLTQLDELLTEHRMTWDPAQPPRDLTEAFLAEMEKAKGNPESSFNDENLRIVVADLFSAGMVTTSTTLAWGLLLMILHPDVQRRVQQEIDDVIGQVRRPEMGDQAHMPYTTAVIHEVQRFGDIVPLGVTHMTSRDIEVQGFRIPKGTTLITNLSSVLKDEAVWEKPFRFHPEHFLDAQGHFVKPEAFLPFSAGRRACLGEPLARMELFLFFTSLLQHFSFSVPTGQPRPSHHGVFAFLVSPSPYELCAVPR

[30] = AUC(0 to t) in male Sprague-Dawley rat at 20 mg/kg, po administered via gavage and measured on day 1; format: ADME, organism-based; conditions: in vivo, 24 h, time 1 day
[31] = Half life in male Sprague-Dawley rat at 40 mg/kg, po administered once daily via gavage for 28 days; format: ADME, organism-based; conditions: in vivo, time 28 day

## C=CC(=O)N1CCc2c(ncnc2N2CC[C@@H](Nc3ncc(Cl)c(OC)n3)C2)C1
[1]
  inhibition: Dose-dependent-effect
[2]
  Activity: Toxic
[3]
  IC50: 204 nM
[4]
  half-life: 6.2 h
[5]
  half-life: 0.23 h
[6]
  Activity: Non-toxic
[7]
  Cmax: 2200 ng/mL
[8]
  AUC(0-inf): 2280 ng·h/mL
[9]
  inhibition: inactive
[10]
  inhibition: 68%
[11]
  IC50: 69 nM
[12]
  Activity: Non-toxic
[13]
  inhibition: 62%
[14]
  IC50: 135 nM
[15]
  half-life: 0.8 h
[16]
  inhibition: 1%
[17]
  half-life: 6.79 h
[18]
  inhibition: 97%
[19]
  inhibition: 24%
[20]
  Activity: Toxic
[21]
  Activity: Non-toxic
[22]
  Kp at 2 h: 0.46
[23]
  Cmax: 1980 ng/mL
[24]
  IC50: > 50000 nM
[25]
  AUCt: 3000 ng·h/mL
[26]
  Cmax: 1070 ng/mL
[27]
  AUCt: 1760 ng·h/mL
[28]
  Activity: Non-toxic
[29]
  IC50: > 50000 nM
[30]
  AUCt: 2550 ng·h/mL
[31]
  half-life: 6.9 h
